Laboratory results published in patent publication US20080311076A1, “Morpholinylanilinoquinazoline Derivatives For Use As Antiviral Agents” (ARROW THERAPEUTICS LIMITED, priority 2004, published 2008).

test system: HCV replicon cells Huh 9B; test: HCV replicon assay (luciferase) in Huh 9B replicon cells; assay type: cell-based; conditions: Hepatitis C virus; concentration reducing replicon level (luciferase activity) by 50% vs untreated cell control; 72 h incubation
Description: HCV replicon cells Huh 9B (ReBlikon), containing the firefly luciferase—ubiquitin—neomycin phosphotransferase fusion protein and EMCV-IRES driven HCV polyprotein with cell culture adaptive mutations.
Cells were cultured at 37° C. in a 5% CO2 environment and split twice a week on seeding at 2×10E6 cells/flask on day 1 and 1×10E6 3 days later. Some 0.25 mg/ml G418 was added to the culture medium (125 ul per 25 ml) but not the assay medium.
The culture medium consisted of DMEM with […] glucose and glutamax (Gibco 61965-026) supplemented with 1× non-essential amino acids, penicillin (100 IU/ml)/streptomycin (100 μg/ml), FCS (10%, 50 ml) and 1 mg/ml G418 (Invitrogen cat no 10131-027) & 10% foetal calf serum.
A flask of cells was trypsinised and a cell count carried out. Cells were diluted to 100,000 cells/ml and 100 μl of this used to seed one opaque white 96-well plate (for the replicon assay) and one flat-bottomed clear plate (for the tox assay) for every seven compounds to be tested for IC50. Wells G12 and H12 were left empty in the clear plate as the blank. Plates were then incubated at 37° C. in a 5% CO2 environment for 24 h.
On the following day compound dilutions are made up in medium at twice their desired final concentration in a clear round bottomed plate. All dilutions have a final DMSO concentration of 1%.
Once the dilution plate had been made up, controls and compounds were transferred to the assay plate (containing the cells) at 100 μl/well in duplicate plates.
Exception: in the white (replicon) plate, no compound was added to wells A1 and A2 and 100 μl of 1% DMSO was added to these instead. In the clear (Tox) plate, wells E12 & F12 only contained the DMSO control. Plates were then incubated at 37° C. with 5% CO2 for 72 h.
At the end of the incubation time, the cells in the white plate were harvested by washing with 200 μl/well of warm (37° C.) PBS and lysed with 20 μl cell culture lysis buffer (Promega). After 5 min incubation @ RT, luciferin solution was added to the luciferase assay buffer (LARB at 200 μl per 10 ml LARB. The M injector of the microplate luminometer (Lmax, Molecular Devices) was primed with […] injections. Plate were inserted into the luminometer and 100 μl luciferase assay reagent was added by the injector on the luminometer. The signal was measured using a 1 second delay followed by a 4 second measurement programme. The IC50, the concentration of the drug required for reducing the replicon level by 50% in relation to the untreated cell control value, can be calculated from the plot of the percentage reduction of the luciferase activity vs. drug concentration.

Structure (SMILES)	IC50 [µM]
Brc1ccc2ncnc(Nc3ccc(N4CCOCC4)cc3)c2c1 [Example 1, (6-Bromo-quinazolin-4-yl)-(4-morpholin-4-yl-phenyl)-amine]	< 5
Ic1ccc2ncnc(Nc3ccc(N4CCOCC4)cc3)c2c1 [Example 2, (6-Iodo-quinazolin-4-yl)-(4-morpholin-4-yl-phenyl)-amine]	< 1
c1coc(-c2ccc3ncnc(Nc4ccc(N5CCOCC5)cc4)c3c2)c1 [Example 5, (6-Furan-2-yl-quinazolin-4-yl)-(4-morpholin-4-yl-phenyl)-amine]	< 1
c1nc(Nc2ccc(N3CCOCC3)cc2)c2cc(-c3ccc(C4OCCO4)o3)ccc2n1 [Example 6, [6-(5-[1,3]Dioxolan-2-yl-furan-2-yl)quinazolin-4-yl]-(4-morpholin-4-yl-phenyl)-amine]	< 5
O=Cc1ccc(-c2ccc3ncnc(Nc4ccc(N5CCOCC5)cc4)c3c2)o1 [Example 7, 5-[4-(4-Morpholin 4-yl-phenylamino)-quinazolin-6-yl]-furan-2-carbaldehyde]	< 1
OCc1ccc(-c2ccc3ncnc(Nc4ccc(N5CCOCC5)cc4)c3c2)o1 [Example 8, {5-[4-(4-morpholin-4-yl-phenylamino)-quinazolin-6-yl]-furan-2-yl}-methanol]	< 1
CS(=O)(=O)CCNCc1ccc(-c2ccc3ncnc(Nc4ccc(N5CCOCC5)cc4)c3c2)o1 [Example 9, (6-{5-[(2-Methanesulfonyl-ethylamino)-methyl]-furan-2-yl}-quinazolin-4-yl)-(4-morpholin-4-yl-phenyl)-amine]	< 1
CN1CCN(Cc2ccc(-c3ccc4ncnc(Nc5ccc(N6CCOCC6)cc5)c4c3)o2)CC1 [Example 11, {6-[5-(4-Methyl-piperazin-1-ylmethyl)-furan-2-yl]-quinazolin-4-yl}-(4-morpholin-4-yl-phenyl)-amine]	< 5
c1nc(Nc2ccc(N3CCOCC3)cc2)c2cc(-c3ccc(CN4CCOCC4)o3)ccc2n1 [Example 12, [6-(5-Morpholin-4-ylmethyl-furan-2-yl)-quinazolin-4-yl]-(4-morpholin-4-yl-phenyl)-amine]	< 1
CN(C)Cc1ccc(-c2ccc3ncnc(Nc4ccc(N5CCOCC5)cc4)c3c2)o1 [Example 13, [6-(5-Dimethylaminomethyl-furan-2-yl)-quinazolin-4-yl]-(4-morpholin-4-yl-phenyl)-amine]	< 5
CNCc1ccc(-c2ccc3ncnc(Nc4ccc(N5CCOCC5)cc4)c3c2)o1 [Example 14, [6-(5-Methylaminomethyl-furan-2-yl)-quinazolin-4-yl]-(4-morpholin4-yl-phenyl)-amine]	< 25
c1csc(-c2ccc3ncnc(Nc4ccc(N5CCOCC5)cc4)c3c2)c1 [Example 15, (4-Morpholin-4-yl-phenyl)-(6-thiophen-2-yl-quinazolin-4-yl)-amine]	< 1
Cc1ccccc1-c1ccc2ncnc(Nc3ccc(N4CCOCC4)cc3)c2c1 [Example 17, (4-Morpholin-4-yl-phenyl)-(6-o-tolyl-quinazolin-4-yl)-amine]	< 5
c1csc(-c2ccc3ncnc(Nc4ccc(N5CCOCC5)cc4)c3c2)n1 [Example 18, (4-Morpholin-4-yl-phenyl)-(6-thiazol-2-yl-quinazolin-4-yl)-amine]	< 1
COc1ncc(-c2ccc3ncnc(Nc4ccc(N5CCOCC5)cc4)c3c2)cn1 [Example 19, [6-(2-Methoxy-pyrimidin-5-yl)-quinazolin-4-yl]-(4-morpholin-4-yl-phenyl)-amine]	< 1
Cc1csc(-c2ccc3ncnc(Nc4ccc(N5CCOCC5)cc4)c3c2)c1 [Example 20, [6-(4-Methyl-thiophen-2-yl)-quinazolin-4-yl]-(4-morpholin-4-yl-phenyl)-amine]	< 5
O=C(O)c1ccc(-c2ccc3ncnc(Nc4ccc(N5CCOCC5)cc4)c3c2)s1 [Example 21, 5-[4-(4-Morpholin-4-yl-phenylamino)-quinazolin-6-yl]-thiophene-2-carboxylic acid]	< 25
CS(=O)(=O)c1ccc(-c2ccc3ncnc(Nc4ccc(N5CCOCC5)cc4)c3c2)cc1 [Example 22, [6-(4-Methanesulfonyl-phenyl)-quinazolin-4-yl]-(4-morpholin-4-yl-phenyl)-amine]	< 1

Structure (SMILES)	IC50 [µM]
c1cc(-c2ccc3ncnc(Nc4ccc(N5CCOCC5)cc4)c3c2)cc(-n2cccn2)c1 [Example 23, (4-Morpholin-4-yl-phenyl)-[6-(3-pyrazol-1-yl-phenyl)-quinazolin-4-yl]-amine]	< 1
N#Cc1ccc(-c2ccc3ncnc(Nc4ccc(N5CCOCC5)cc4)c3c2)cc1 [Example 24, 4-[4-(4-Morpholin-4-yl-phenylamino)-quinazolin-6-yl]-benzonitrile]	< 5
O=C(Nc1ccc2ncnc(Nc3ccc(N4CCOCC4)cc3)c2c1)c1ccco1 [Example 25, Furan-2-carboxylic acid [4-(4-morpholin-4-yl-phenylamino)-quinazolin-6-yl]-amide]	< 25
COc1ccc(CNC(=O)c2ccc3ncnc(Nc4ccc(N5CCOCC5)cc4)c3c2)cc1 [Example 26, 4-(4-Morpholin-4-yl-phenylamino)-quinazoline-6-carboxylic acid 4-methoxy-benzylamide]	< 5
CCOC(=O)c1cccc(NC(=O)c2ccc3ncnc(Nc4ccc(N5CCOCC5)cc4)c3c2)c1 [Example 27, 3-{[4-(4-Morpholin-4-yl-phenylamino)-quinazoline-6-carbonyl]-amino}-benzoic acid ethyl ester]	< 5
COc1cccc(CNC(=O)c2ccc3ncnc(Nc4ccc(N5CCOCC5)cc4)c3c2)c1 [Example 28, 4-(4-Morpholin-4-yl-phenylamino)-quinazoline-6-carboxylic acid 3-methoxy-benzylamide]	< 5
Cc1ccc(CNC(=O)c2ccc3ncnc(Nc4ccc(N5CCOCC5)cc4)c3c2)cc1 [Example 29, 4-(4-Morpholin-4-yl-phenylamino)-quinazoline-6-carboxylic acid 4-methyl-benzylamide]	< 5
CNC(=O)c1ccc2ncnc(Nc3ccc(N4CCOCC4)cc3)c2c1 [Example 30, 4-(4-Morpholin-4-yl-phenylamino)-quinazoline-6-carboxylic acid methylamide]	< 5
CN(C)C(=O)c1ccc2ncnc(Nc3ccc(N4CCOCC4)cc3)c2c1 [Example 31, 4-(4-Morpholin-4-yl-phenylamino)-quinazoline-6-carboxylic acid dimethylamide]	< 5
CCNC(=O)c1ccc2ncnc(Nc3ccc(N4CCOCC4)cc3)c2c1 [Example 32, 4-(4-Morpholin-4-yl-phenylamino)-quinazoline-6-carboxylic acid ethylamide]	< 5
O=C(Nc1ccc(-c2ccc3ncnc(Nc4ccc(N5CCOCC5)cc4)c3c2)cc1)OCc1ccccc1 [Example 34, {4-[4-(4-Morpholin-4-yl-phenylamino)-quinazolin-6-yl]-phenyl}-carbamic acid benzyl ester]	< 1
CC(=O)Nc1ccc(-c2ccc3ncnc(Nc4ccc(N5CCOCC5)cc4)c3c2)cc1 [Example 35, N-{4-[4-(4-Morpholin 4-yl-phenylamino)-quinazolin-6-yl]-phenyl}-acetamide]	< 1
CC(C)(C)OC(=O)Nc1ccc(-c2ccc3ncnc(Nc4ccc(N5CCOCC5)cc4)c3c2)cc1 [Example 36, {4-[4-(4-Morpholin-4-yl-phenylamino)-quinazolin-6-yl]-phenyl}-carbamic acid tert-butyl ester]	< 1
CS(=O)(=O)Nc1cccc(-c2ccc3ncnc(Nc4ccc(N5CCOCC5)cc4)c3c2)c1 [Example 38, N-{3-[4-(4-Morpholin-4-yl-phenylamino)-quinazolin-6-yl]-phenyl}-methanesulfonamide]	< 5
FC(F)(F)c1cc(N2CCOCC2)ccc1Nc1ncnc2ccc(I)cc12 [Example 39, (6-Iodo-quinazolin-4-yl)-(4-morpholin-4-yl-2-trifluoromethyl-phenyl)-amine]	< 1
FC(F)(F)c1cc(N2CCOCC2)ccc1Nc1ncnc2ccc(-c3cccs3)cc12 [Example 40, (4-Morpholin-4-yl-2-trifluoromethyl-phenyl)-(6-thiophen-2-yl-quinazolin-4-yl)-amine]	< 1
COc1cc(Nc2ncnc3ccc(I)cc23)ccc1N1CCOCC1 [Example 41, (6-Iodo-quinazolin-4-yl)-(3-methoxy-4-morpholin-4-yl-phenyl)-amine]	< 5
